Measured values from article PMC9820316, “Novel Arylpiperazine Derivatives of Salicylamide with α1-Adrenolytic Properties Showed Antiarrhythmic and Hypotensive Properties in Rats” (International Journal of Molecular Sciences, 2022).

Each molecule was assayed on calcium chloride-induced arrhythmia model in rats (assay: Prophylactic antiarrhythmic activity in calcium chloride-induced arrhythmia). Conditions: 5 mg/kg iv 15 min before calcium chloride 140 mg/kg; number of animals with event.
Format: in vivo, rat
Method: The animals were anesthetized with thiopental (75 mg/kg ip). Depending on the model, either adrenaline, aconitine, or calcium chloride was used as an arrhythmogen. Adrenaline and aconitine were administered iv at a dose of 20 µg/kg, whereas calcium chloride was administered at a dose of 140 mg/kg to induce heart rhythm disturbances. The tested compounds were injected iv 15 min before the arrhythmogen. Aspel ASCARD apparatus (standard II lead, with the tape speed 50 mm/s and voltage calibration 1 mV = 1 cm) was used for ECG measurements. […] The ED50 was calculated using the method of Litchfield and Wilcoxon.
With Cl.NC(=O)c1ccccc1OCCCCN1CCN(c2cccc(Cl)c2)CC1 [JJGW01, 2-{4-[4-(3-chlorophenyl)piperazin-1-ylo]butoxy}benzamide hydrochloride] the Blocks was 6/6, the Bradycardia was 6/6 and the Extrasystoles was 6/6. For the same molecule, the Fibrillations was 6/6 and the Mortality was 6/6.
In the case of Cl.NC(=O)c1ccccc1OCCCCCCN1CCN(c2cccc(Cl)c2)CC1 [JJGW03, 2-{6-[4-(3-chlorophenyl)piperazin-1-ylo]hexoxy}benzamide hydrochloride], the Blocks is reported as 6/6, the Bradycardia is reported as 6/6 and the Extrasystoles is reported as 6/6. The Fibrillations was 4/6 and the Mortality was 5/6.
For COc1ccccc1N1CCN(Cc2ccc(COc3ccccc3C(N)=O)cc2)CC1.Cl [JJGW12, 2-[(4-{[4-(2-metoxyphenyl)piperazin-1-ylo]methyl}phenyl)metoxy}benzamide hydrochloride], the Blocks was 6/6, the Bradycardia was 6/6 and the Extrasystoles was 6/6. For the same molecule, the Fibrillations was 4/6 and the Mortality was 6/6.
With Cl.NC(=O)c1ccccc1OCCCCCN1CCN(c2cccc(Cl)c2)CC1 [JJGW02, 2-{5-[4-(3-chlorophenyl)piperazin-1-ylo]pentoxy}benzamide hydrochloride] the Blocks was 5/6, the Bradycardia was 6/6 and the Extrasystoles was 5/6. The Fibrillations was 4/6 and the Mortality was 6/6.
In the case of COc1ccccc1N1CCN(Cc2cccc(COc3ccccc3C(N)=O)c2)CC1.Cl [JJGW11, 2-[(3-{[4-(2-metoxyphenyl)piperazin-1-ylo]methyl}phenyl)metoxy}benzamide hydrochloride], the Blocks is reported as 6/6, the Bradycardia is reported as 6/6 and the Extrasystoles is reported as 5/6. For the same molecule, the Fibrillations was 6/6 and the Mortality was 6/6.
